From PMC11355195 (Life, 2024) come the findings set out here.

In one assay the test system is MDA-MB-436. Briefly: MTT cell viability, MDA-MB-436. Format: cell-based, Human. Particulars: Homo sapiens, MDA-MB-436; MTT test; 72 h of treatment (Figure 3); read-out: IC50 Value ± SD, MDA-MB-436. The method, then:
These cell lines were selected to represent distinct sub-types of breast cancer for extensive investigation. […] The medium was added with 10% heat-inactivated fetal calf serum (FCS) to supply vital growth hormones and nutrients necessary for cell proliferation. Additionally, 1% penicillin streptomycin was administered to avoid bacterial contamination, ensuring the sterility and integrity of the cell cultures. The cell cultures were maintained at 37 °C in a humidified environment containing 5% CO2. This controlled environment mimics physiological conditions in the human body, supporting optimal cell development and function. The humidified atmosphere prevents medium evaporation, while the 5% CO2 concentration maintains optimal pH values in the culture medium. These specialized circumstances and methods ensure that the breast cancer cell lines remain healthy and viable for experimental procedures, delivering dependable and reproducible results for research projects. The standard protocols followed for cultivating these cells are crucial for generating consistent and reliable data. Using well-characterized cell lines from a credible source like ATCC ensures the re-liability and comparability of the experimental outcomes.
This approach determines cell viability based on the ability of living cells to decrease MTT to a purple, water-insoluble formazan product. Cells were planted in 96-well plates at a density of 1 × 10^4 cells per well in 100 μL of complete culture media, which provides all necessary nutrients for cell growth. […] The cells were then treated with the compounds for 24, 48, and 72 h to determine the effect on cell viability over varied time intervals. Following each incubation time, 20 μL of MTT solution (at a concentration of 5 mg/mL in PBS) were applied to each well. The plates were further incubated for 4 h at 37 °C, during which time live cells decrease the MTT to formazan, creating purple crystals. At the end of the incubation, the medium containing the MTT was carefully aspirated, leaving only the formazan crystals in the bottom of the wells. […]

The next assay concerns the target T1, COX-1 (Ovis aries, UniProt P05979).
T1 construct: The COX-1 enzyme was produced from ram seminal vesicles; purchased Cayman Chemical Company, Ann Arbor, MI, USA; host or cells: ram seminal vesicles (tissue)
T1 sequence (P05979 25-600): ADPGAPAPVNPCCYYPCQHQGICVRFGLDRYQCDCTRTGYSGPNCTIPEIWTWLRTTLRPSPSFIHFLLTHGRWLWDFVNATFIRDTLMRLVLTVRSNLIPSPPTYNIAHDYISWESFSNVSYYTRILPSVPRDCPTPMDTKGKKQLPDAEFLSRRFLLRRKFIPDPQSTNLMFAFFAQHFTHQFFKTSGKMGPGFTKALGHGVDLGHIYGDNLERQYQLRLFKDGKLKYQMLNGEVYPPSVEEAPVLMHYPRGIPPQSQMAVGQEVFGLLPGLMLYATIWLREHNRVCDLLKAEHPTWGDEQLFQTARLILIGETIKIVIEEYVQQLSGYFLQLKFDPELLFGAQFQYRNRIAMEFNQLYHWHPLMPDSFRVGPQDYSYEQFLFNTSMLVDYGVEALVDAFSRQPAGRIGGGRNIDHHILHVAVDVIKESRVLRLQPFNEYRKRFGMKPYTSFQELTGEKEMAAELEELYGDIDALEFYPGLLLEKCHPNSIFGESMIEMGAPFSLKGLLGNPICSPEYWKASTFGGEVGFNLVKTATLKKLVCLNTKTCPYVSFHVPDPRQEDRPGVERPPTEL
The assay can be described thus: COX-1-catalyzed prostaglandin production inhibition. Format: biochemical, ram. Particulars: mean ± standard deviation, three replicas; read-out: COX-1 inhibition IC50 (converted). The method, then: (§1) The COX inhibitory effects of the substances were examined using a COX-1/COX-2-catalyzed prostaglandin production test, using a modified approach by Futaki et al.. The chemicals were dissolved in 4% DMSO to a final concentration of 100 µg/mL.
(§2) In this test, one unit of COX-1 or COX-2 enzyme was suspended in a 0.1 M Tris-HCl buffer (pH 7.5) containing hematin ([…]) and phenol (2 mM) as cofactors. The COX-1 enzyme was produced from ram seminal vesicles, while COX-2 was taken from sheep placenta with a purity of 70% (both from Cayman Chemical Company, Ann Arbor, MI, USA). The reaction mixture was preincubated with either the solvent vehicle (4% DMSO) or the test solution for 2 min at 37 °C. […] Arachidonic acid, tagged with radioactive carbon ([1–14C]), serves as a substrate for the COX enzymes. The mixture was then incubated for an additional 2 min at 37 °C. […] The organic solvent phase was removed, and the PGE2 level in the remaining aqueous phase was quantified using a radioimmunoassay with a liquid scintillation counter, which measures the radioactivity (disintegrations per minute, DPM) of the [1–14C]-labeled PGE2. The percentage inhibition of COX-catalyzed prostaglandin production by the test compounds was estimated by comparing the radioactivity of the samples with the solvent vehicle controls. […]

A further assay addresses T2, COX-2 (Ovis aries, UniProt P79208).
T2 construct: purchased Cayman Chemical Company, Ann Arbor, MI, USA; host or cells: sheep placenta (tissue)
T2 sequence (P79208 17-603): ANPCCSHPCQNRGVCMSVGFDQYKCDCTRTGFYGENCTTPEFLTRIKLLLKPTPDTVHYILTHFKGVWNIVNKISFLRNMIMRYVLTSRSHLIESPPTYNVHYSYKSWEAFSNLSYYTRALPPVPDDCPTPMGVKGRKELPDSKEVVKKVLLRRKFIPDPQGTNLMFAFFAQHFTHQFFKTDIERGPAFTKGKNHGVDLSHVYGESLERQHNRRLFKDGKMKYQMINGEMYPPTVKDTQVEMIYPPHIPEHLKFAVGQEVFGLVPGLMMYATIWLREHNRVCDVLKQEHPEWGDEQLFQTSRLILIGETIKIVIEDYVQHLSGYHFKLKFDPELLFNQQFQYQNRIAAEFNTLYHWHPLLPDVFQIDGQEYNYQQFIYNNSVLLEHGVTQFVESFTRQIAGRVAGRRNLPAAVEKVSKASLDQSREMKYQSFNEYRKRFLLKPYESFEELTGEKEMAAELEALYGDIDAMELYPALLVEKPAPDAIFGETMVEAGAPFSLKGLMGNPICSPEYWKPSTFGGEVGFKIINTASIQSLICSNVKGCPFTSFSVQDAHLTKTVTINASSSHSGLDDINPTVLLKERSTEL
The assay can be described thus: COX-2-catalyzed prostaglandin production inhibition. It is filed as biochemical, sheep. The settings on record: mean ± standard deviation, three replicas. The method, then: as §1, §2

≈ marks a conversion by molar mass, not a printed value.

As for `Cc1ccc(C(C)C)c(O)c1` [Thymol, 2-isopropyl-5-methylphenol], the IC50 is 15.8 ± 1.69 µg/mL (≈ 105 µM) with MDA-MB-436, 198 µM on COX-1 and 177 µM on COX-2.
